The results in this text go back to patent US20100008965A1, “BIOCOMPATIBLE MEDICAL PRODUCTS HAVING ENHANCED ANTI-THROMBOGENIC PROPERTIES” (priority 2008, published 2010).

For assay [1], the system named is HCAEC. Kind of assay: HCAEC cell binding assay to immobilized fibronectin polypeptides (crystal violet). In kind it is cell-based, human. The settings on record: immobilized, 8 h. As to the method:
(§1) Human coronary artery endothelial cell (HCAEC) and human umbilical vein endothelial cell (HUVEC) primary human cells were obtained (Cambrex Corporation, East Rutherford, N.J.) and maintained according to the manufacturer's instructions at 37° C. and 5% CO2. HCAEC were grown in microvascular endothelial cell medium (EBM-2 MV, Cambrex) supplemented with 5% fetal bovine serum, 0.1% human epidermal growth factor, 0.04% hydrocortisone, 0.1% vascular endothelial growth factor, 0.4% human fibroblast growth factor-B, 0.1% R^3-insulin-like growth factor-1, 0.1% ascorbic acid, and 0.1% gentamicin and amphotericin-B (GA-1000). HUVEC were grown in endothelial cell medium (EBM, Cambrex) supplemented with 2% fetal bovine serum, 0.4% bovine brain extract, 0.1% human epidermal growth factor, 0.1% hydrocortisone, and 0.1% gentamicin and amphotericin-B (GA-1000). HCAEC and HUVEC were subcultured at 90-95% confluence using 0.05% trypsin-EDTA (Invitrogen, Carlsbad, Calif.) and used for experiments between passages 3-7 (HUVEC) or 5-11 (HCAEC).
HCAEC or HUVEC cell binding assays to immobilized recombinant fibronectin polypeptides were performed in order to ascertain which polypeptide(s) maximally support(s) alpha-4 integrin-mediated cell adhesion. Connecting Segment-1 (SEQ ID NO:1), EILDV (SEQ ID NO:2), RGDS (SEQ ID NO:3) (positive control), RGES (SEQ ID NO:4) (negative control), and EILEVPST (SEQ ID NO:5) (negative control) and were immobilized by drying overnight at room temperature in Immobilizer™ Amino 96-well microplates (Nalge Nunc International, Rochester, N.Y.). RGES, EILDV, and EILEVPST were incubated at a molar equivalent concentration equal to 200 μg RGDS per well. CS-1 was incubated at 50 μg/well. On a molar basis per well, this equates to approximately twenty-fold less CS-1 relative to RGDS. […] Cells were manually counted, and their concentration adjusted to yield a total cell population of 5×10^4 cells/well. […] Spectrometric absorbance values were read at 562 nm at room temperature using a ThermoMax microplate reader (Molecular Devices Corporation, Sunnyvale, Calif.).

The subject of assay [2] is HUVEC. Kind of assay: HUVEC cell binding assay to immobilized fibronectin polypeptides (crystal violet). In kind it is cell-based, human. The settings on record: 8 h. As to the method:
as §1, with “HCAEC and HUVEC were subcultured at 90-95% confluence using 0.05% trypsin-EDTA (Invitrogen, Carlsbad, Calif.) and used for experiments between passages 3-7 (HUVEC) or 5-11 (HCAEC).” left out
HCAEC or HUVEC cell binding assays to immobilized recombinant fibronectin polypeptides were performed in order to ascertain which polypeptide(s) maximally support(s) alpha-4 integrin-mediated cell adhesion. […] Cells were manually counted, and their concentration adjusted to yield a total cell population of 5×10^4 cells/well. […] Spectrometric absorbance values were read at 562 nm at room temperature using a ThermoMax microplate reader (Molecular Devices Corporation, Sunnyvale, Calif.).

Assay [3] concerns HCAEC. Put plainly: alpha-4 integrin function blocking cell binding assay, HCAEC. The settings on record: 0.5 μg antibody per 5×10^4 cells, 8 h; CS-1 p<0.05. In kind it is cell-based, human. As to the method:
(§2) To verify that HCAEC or HUVEC adhesion to immobilized CS-1 polypeptides is specifically mediated via alpha-4-containing integrin heterodimers, alpha-4 integrin function blocking cell binding assays were performed. RGDS, EILEVPST, and CS-1 polypeptides were immobilized in Immobilizer™ Amino 96-well microplates. Microplate wells were prepared as described above. Trypsinized HCAEC or HUVEC suspensions were manually counted, aliquoted into two groups, and incubated for one hour on ice with one of the following antibodies at a concentration of 0.5 μg antibody per 5×10^4 cells: (a) mouse monoclonal IgG1 anti-human alpha-4-integrin (CD49d, clone P1H4) (Chemicon), or (b) mouse monoclonal IgG1 anti-human isotype-matched control (R&D Systems). Next, 5×10^4 cells suspended in their respective basal medium were added to wells containing immobilized peptide polypeptides and incubated for eight hours at 37° C. and a 5% CO2 atmosphere. Adherent cells were analyzed via crystal violet staining as described previously.
To differentiate whether HCAEC and HUVEC adhere to CS-1 peptides via an alpha-4 integrin-specific interaction, HCAEC and HUVEC adhesion assays to CS-1, RGDS, and EILEVPST peptides were performed following one hour endothelial cell incubations with either an alpha-4 integrin function blocking antibody or an IgG isotype-matched control antibody. The EILEVPST peptide served as the negative control cell adhesion peptide. The RGDS peptide served as an additional control. Endothelial cell adhesion to RGDS is primarily mediated by alpha-5-beta-1 integrins. Therefore, alpha-4 integrin function blocking should not have a significant effect on adhesion to RGDS. Thus, specificity of HCAEC and HUVEC binding to CS-1 via alpha-4 integrins could be tested.

Assay [4] relates to HUVEC. Kind of assay: alpha-4 integrin function blocking cell binding assay, HUVEC. The settings on record: 0.5 μg antibody per 5×10^4 cells, 8 h; CS-1 p=0.1. In kind it is cell-based, human. On the procedure: as §2
To differentiate whether HCAEC and HUVEC adhere to CS-1 peptides via an alpha-4 integrin-specific interaction, HCAEC and HUVEC adhesion assays to CS-1, RGDS, and EILEVPST peptides were performed following one hour endothelial cell incubations with either an alpha-4 integrin function blocking antibody or an IgG isotype-matched control antibody. […]

For assay [5], the system named is human platelets. Kind of assay: 51Cr-labeled platelet adhesion to immobilized ECM proteins under shear flow. In kind it is cell-based. To be noted: 16.5 dyne/cm^2, one hour; non-activated and thrombin-activated; versus CS-1 and glass control. As to the method:
Characterization of human platelet adhesion to immobilized extracellular matrix proteins was performed by subjecting non-activated or thrombin-activated human platelets to a shear stress τ=16.5 dyne/cm^2 for one hour using a peristaltic pump-driven parallel plate fluid flow system. Washed human platelets were isolated as described above, resuspended in platelet washing buffer (PWB), and adjusted to a final concentration of approximately 0.5-1.0×10^9 platelets/ml. The platelet suspensions were incubated for thirty minutes at room temperature with 25 μCi/ml Na2^51CrO4 (GE Healthcare, Piscataway, N.J.). ^51Cr-labeled platelets were centrifuged at 2000×g for three minutes at room temperature and resuspended in 20 ml fresh frozen plasma previously thawed and warmed to 37° C. The ^51Cr-platelet/plasma solution was distributed equally (5 ml) into each of four reservoirs containing an additional 50 ml of 37° C. human plasma. For thrombin-activated platelets, 1 U thrombin (Sigma) per 3 ml platelet suspension was added immediately prior to aliquoting the ^51Cr-platelet/plasma solution into the flow loop reservoirs.
75×38×1 mm glass microscope slides were coated with ECM proteins as described above. Slides were incubated for one hour at room temperature with a 0.25% (w/v) sterile-filtered BSA solution. […]

Assay [6] deals with human platelets. Put plainly: DiOC6-labeled platelet adhesion imaging under shear flow. In kind it is cell-based. To be noted: 16.5 dyne/cm^2, one hour. On the procedure: To visualize shear stress-mediated platelet adhesion to the immobilized ECM proteins, non-radiolabeled non-activated or thrombin-activated human platelets were prepared as described above, but were first incubated for ten minutes at room temperature with a 10 μM DiOC6 (dihexaoxacarbocyanine iodide) (Sigma) solution prior to being subjected to flow for one hour at a shear stress τ=16.5 dyne/cm^2. Post-flow, all slides were rinsed twice with PBS and fixed with 4% (w/v) paraformaldehyde. Platelet adhesion was visualized on a Nikon Diaphot 200 inverted epifluorescence microscope (Nikon) at 488 nm using a 40× objective. Images were captured using an Olympus DP70 digital camera (Olympus America, Inc.) and analyzed using the Adobe® Photoshop® software package version 6.0 (Adobe Systems Incorporated, San Jose, Calif.).

Assay [7] has as its target human alpha-4 integrin (CD49d), alpha-4-containing integrin heterodimers on endothelial cells (human) (UniProt P13612). Kind of assay: flow cytometry, FITC-BU49 on fixed HCAEC, against isotype control. For orientation: A flow cytometer gives signals particle by particle.
Assay [8] shares this target. Kind of assay: flow cytometry, FITC-BU49 on fixed HUVEC, against isotype control.
The target is the same in assay [9]. Put plainly: flow cytometry, FITC-BU49 on fixed human foreskin fibroblasts, against isotype control.
Assay [10] has as its target human alpha-4 integrin (CD49d), alpha-4-containing integrin heterodimers on endothelial cells (human, UniProt P13612 34-1032). Kind of assay: cell-based or functional assay.

Sequence of human alpha-4 integrin (CD49d), alpha-4-containing integrin heterodimers on endothelial cells (human) (P13612 34-1032, one chain of several): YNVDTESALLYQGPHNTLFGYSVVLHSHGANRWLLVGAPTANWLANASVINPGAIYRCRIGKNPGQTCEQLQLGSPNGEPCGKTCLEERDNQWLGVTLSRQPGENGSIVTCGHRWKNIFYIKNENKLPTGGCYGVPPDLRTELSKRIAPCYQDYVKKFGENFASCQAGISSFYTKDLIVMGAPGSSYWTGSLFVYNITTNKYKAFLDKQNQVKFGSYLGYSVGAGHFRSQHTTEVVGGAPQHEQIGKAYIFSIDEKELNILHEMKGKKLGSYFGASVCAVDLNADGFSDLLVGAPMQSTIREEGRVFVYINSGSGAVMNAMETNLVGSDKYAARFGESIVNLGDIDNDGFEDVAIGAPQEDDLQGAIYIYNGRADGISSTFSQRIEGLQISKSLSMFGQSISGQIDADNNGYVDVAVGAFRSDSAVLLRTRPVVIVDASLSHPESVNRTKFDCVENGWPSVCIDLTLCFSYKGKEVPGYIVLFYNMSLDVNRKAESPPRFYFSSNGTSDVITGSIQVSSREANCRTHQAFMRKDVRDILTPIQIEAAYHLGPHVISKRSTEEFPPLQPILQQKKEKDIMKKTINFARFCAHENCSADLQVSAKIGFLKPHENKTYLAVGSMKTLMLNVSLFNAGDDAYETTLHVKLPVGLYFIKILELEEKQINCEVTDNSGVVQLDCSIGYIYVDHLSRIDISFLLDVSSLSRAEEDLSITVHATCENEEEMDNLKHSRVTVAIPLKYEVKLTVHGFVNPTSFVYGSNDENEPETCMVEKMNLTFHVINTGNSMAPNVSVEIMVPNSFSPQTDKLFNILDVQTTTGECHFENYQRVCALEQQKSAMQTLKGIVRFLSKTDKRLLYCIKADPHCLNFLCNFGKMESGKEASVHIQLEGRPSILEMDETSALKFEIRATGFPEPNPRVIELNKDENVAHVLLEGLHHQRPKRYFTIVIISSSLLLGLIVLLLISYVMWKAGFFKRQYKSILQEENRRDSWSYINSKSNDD
Sequence of human alpha-4 integrin (CD49d), alpha-4-containing integrin heterodimers on endothelial cells (P13612 34-1032, one chain of several): as above

For the molecule “EILEVPST (listed as Homo sapiens) [alpha-4 integrin-mediated negative control peptide]”, the “HCAEC adhesion compared with RGES control” value in assay [1] is given as “essentially equivalent”. Besides, in assay [2], the “HUVEC adhesion compared with RGES control” value is reported as “essentially equivalent”. For the same molecule, the “difference in HCAEC adhesion between IgG isotype control and alpha-4 integrin blocking antibody treated cells” value in assay [3] is given as “not statistically significant”. The “difference in HUVEC adhesion between IgG isotype control and alpha-4 integrin blocking antibody treated cells” value in [4] was “not statistically significant”.
In the case of “RGDS (listed as Homo sapiens) [integrin-mediated cell adhesion peptide, positive control]”, in assay [3], the “difference in HCAEC adhesion between IgG isotype control and alpha-4 integrin blocking antibody treated cells” value is reported as “not statistically significant”. In addition, the “difference in HUVEC adhesion between IgG isotype control and alpha-4 integrin blocking antibody treated cells” value in assay [4] was “not statistically significant”.
“type I human collagen: human type I collagen (Sigma), extracellular matrix protein”: the “flowed platelet binding (51Cr), both states of activation” value in assay [5] is reported as “significantly increased binding”. Further, the “non-activated platelet adhesion and thrombus formation (DiOC6 images)” value in assay [6] (non-activated platelets) was “quite vigorous, with clear evidence of multiple organized thrombi”. For the same molecule, the “thrombin-activated platelet adhesion and thrombus formation (DiOC6 images)” value in assay [6] (platelets activated prior to flow) is “mimicked the non-activated counterparts”.
With “FITC-conjugated mouse monoclonal IgG1 anti-human alpha-4 integrin (CD49d, clone BU49) (Chemicon International) (antibody)”, the figures for the percent of cell population positive in assay [7], in assay [8] and in [9] were 40%, 10% and 75%, respectively.
“EILDV (listed as Homo sapiens) [fibronectin IIICS peptide]”: in assay [1], the “HCAEC adhesion compared with RGES control” value was “not statistically different than the RGES control”.
Take DELPQLVTLPHPNLHGPEILDVPST: in [10], the “HCAEC adhesion to immobilized peptide, fold relative to control peptide RGES (crystal violet, A562)” value amounted to 1.6 fold; the “HUVEC adhesion to immobilized peptide, fold relative to control peptide RGES (crystal violet, A562)” value is roughly 4 fold; the “percent more of the total HCAEC population adhered, relative to RGES” value is roughly 20%; the “percent more of the total HUVEC population adhered, relative to RGES” value was roughly 25%.
